# Entries after “also recorded” stand apart in the source; their conditions may differ.
# What was measured:
# [1] = test system: Huh7 tumor cells; experiment: In vivo fluorescence imaging following ICG administration in Huh7 xenograft mice; set-up: species or system immunodeficient mice; conditions: 0.5 mg/kg ICG dose, FIG. 32
# Experimental: Other areas of high signal represents concentration within the intestinal lumen. Control mouse without tumor is shown on the left side.
# Xenotransplantation of the following cell lines is performed: FLX1 (FLC), Huh-7 (HCC) and HepG2 (well-differentiated HCC) in immunodeficient mice. […] Therefore, the dose is escalated to an appropriate level. Even though the majority of the models use HCC cells, the findings are applicable to FLC since FLC also has the ability to retain ICG (FIGS. 31A-31D). Currently, there is only one readily available FLC cell line, which also has the property to be engrafted in an immunodeficient mouse model.
# [2] = test system: FLC tumor tissue; experiment: Gross and microscopic ICG localization in FLC patients (near-infrared fluorescence at surgery); type: in vivo, patient; conditions: intravenous ICG 48 hours prior to surgery, FIGS. 31A-31D
# Experimental: ICG is administered several days prior to surgery, which subsequently is cleared from the blood and normal liver but is retained in tumor tissue. At the time of surgery, a near-infrared camera is used to identify ICG retaining tumor tissue since it fluoresces in response to near-infrared wave.^22,23 The use of ICG for localization of HCC and hepatoblastoma has been reported^16-18,21,22,30 however, there are no published reports regarding its use in FLC. […] The MDR3 transporter, which is responsible for export of ICG into the bile canaliculi is also expressed in tumor cells, albeit at lower levels.
# [3] = In vivo biodistribution of 18F-SFB-ICG in wild type mice by whole body PET/CT; set-up: species or system female C57BL/6 mice
# Experimental: (§1) The study was comprised of female C57BL/6 mice (n=4, 20.4+0.8 g, age 12.9 weeks). The modalities were whole body PET/CT and whole blood gamma counting which were performed on the mice using the imaging agent ^18F-SFB-ICG as outlined in Table 1. Briefly, the mice were imaged in a 2-bed imaging hotel with imaging agent administered intravenously while animals were on camera (volume dosed was maintained constant to keep mass dose constant). 1 hour dynamic PET data was acquired, followed by CT. A static 30 minute PET dataset was acquired at 4 hours, also followed by CT. A blood sample was taken immediately following each imaging time point for gamma counting.
# PET/CT: PET images were co-registered to CT images and resampled to uniform voxel size (0.2 mm^3). The injected activity doses were normalized to the averaged activity in the field of view (FOV) in the final 6 frames of the dynamic scan (FOV-based normalization). The Regions of Interest (ROIs) were defined using various methods in VivoQuant software: A fixed volume ellipsoidal ROI was placed in the center of the heart, to encompass a volume of representative concentration for that region. The fixed volume sphere ROIs were placed in the center of the lobes of the lungs (2), and throughout the spleen (3) to encompass a volume of representative concentration for those regions. Based on the CT and PET, the following organs were segmented as completely as possible: liver, gallbladder, small intestines, cecum, and large intestines. The activity concentration was reported as Standardized Uptake Value (SUV), equating to the […]. For fully segmented organs, uptake was also reported in percentage injected dose (% ID). FIGS. 17A-17D show resulting PET/CT images of a representative wild type mouse.
# [4] = Whole blood gamma counting after 18F-SFB-ICG injection; type: in vivo, female C57BL/6 mice; conditions: FIG. 24B
# Experimental: as §1
# Gamma Counting: Whole blood samples were collected after each imaging session for ex vivo radioactivity analysis by gamma counting. Triplicates of ^18F-SFB-ICG were also counted to calculate an efficiency factor from which counts could be converted to units of activity (μCi). The sample activities were corrected for background radiation and decay-corrected to the injection time. The tissue volumes were estimated through measurement of sample weights, and blood activity was reported as % ID/g and SUV.
# [5] = [18F]SFB-ICG stability by HPLC (RCP); type: physicochemical
# Experimental: FIGS. 11A-11B show HPLC traces of [^18F]SFB-ICG stability at 1 hour, and 2 hours.
smiles,measurement,setting,value
"CC1(C)C(/C=C/C=C/C=C/C=C2\N(CCCCS(=O)(=O)O)c3ccc4ccccc4c3C2(C)C)=[N+](CCCCS(=O)(=O)[O-])c2ccc3ccccc3c21 [ICG, indocyanine green]",uptake by implanted Huh7 tumor cells,[1],demonstrate uptake; also recorded: ICG uptake by Huh7 tumor cells
same,ICG uptake/accumulation in FLC tumor tissue and metastases,[2],accumulation of ICG in metastatic tumor bed; also recorded: fluorescence (white) within tumor cells; also recorded: accumulates in FLC; also recorded: ICG uptake by tumor tissue in the liver as well as metastatic deposits
CC1(C)C(/C=C/C=C/C=C/C=C2/N(CCCCCC(=O)NCCNC(=O)c3ccc([18F])cc3)c3ccc4ccccc4c3C2(C)C)=[N+](CCCCS(=O)(=O)[O-])c2ccc3ccccc3c21 [[^18F]ICG],time to evidence of excretion of the tracer into the gallbladder via the biliary system,"[3]; IV, wild-type mice",≤ 20 min
same,time to evidence of the tracer in the lumen of the small intestine,"[3]; IV, wild-type mice",≤ 45 min
same,signal intensity in the liver,[3]; at 4 hours post injection,decreased significantly
same,tracer localization,[3]; at 4 hours post injection,majority of the tracer is localized to the lumen of the intestines
same,tracer localization,[3]; by 5 minutes post injection,predominantly localized to the liver
same,percentage of injected dose localized to the cecum,"[3]; cecum, at 4 hours, IV, wild-type mice",approximately 30 % ID
same,percentage of injected dose localized to the liver,"[3]; by 10 minutes, IV, wild-type mice, FIG. 18B",~70%
same,percentage of injected dose localized to the liver,"[3]; by 4 hours, IV, wild-type mice",about 40 % ID
same,uptake by other organs via the circulation,[3]; organs other than liver,no significant uptake by any other organs
same,tracer localization,[3]; time 0 post injection,localized to the heart and the major vessels
same,activity present in whole blood,[4]; 1 hour,2-2.5 % ID
same,activity present in whole blood,[4]; 4 hours,1 % ID
CC1(C)C(/C=C/C=C/C=C/C=C2/N(CCCCCC(=O)NCCNC(=O)c3ccc([18F])cc3)c3ccc4ccccc4c3C2(C)C)=[N+](CCCCS(=O)(=O)[O-])c2ccc3ccccc3c21 [[^18F]SFB-ICG],RCP (stability),[5]; at 1 hour,95%
same,RCP (stability),[5]; at 2 hours,96%
CC1(C)C(/C=C/C=C/C=C/C=C2/N(CCCCCC(=O)NCCNC(=O)c3ccc([18F])cc3)c3ccc4ccccc4c3C2(C)C)=[N+](CCCCS(=O)(=O)[O-])c2ccc3ccccc3c21 [^18F-SFB-ICG],tracer localization,[3]; at 4 hours post injection,most intense signal is present within the lumen of the intestines
same,tracer localization,[3]; by 5 minutes post injection,majority of the tracer is localized to the liver
same,PET signal in large intestines and cecum,"[3]; time activity curves, FIGS. 18A-18B",not observed until the 4 hour time point

# Reference: patent US20260256924A1, “INDOCYANINE GREEN (ICG) MODIFICATION FOR TREATMENT OF LIVER CANCER” (The Children's Medical Center Corporation, priority 2022, published 2026)
